Here are results for 28 molecules from ChEMBL document CHEMBL1141611, “Truncation and non-natural amino acid substitution studies on HTLV-I protease hexapeptidic inhibitors” (Bioorg Med Chem Lett, 2008).

Assay [1] concerns the target Gag-Pro polyprotein (Human T-cell leukemia virus 1 (strain Japan ATK-1 subtype A) (HTLV-1), UniProt P10274, L40I). Kind of assay: Inhibition of HTLV1 protease L40I mutant expressed in Escherichia coli BL21(DE3)pLysS. Set-up: species or system Human T-cell leukemia virus type I.
The target in assay [2] is Protease (Human immunodeficiency virus 1) (UniProt Q9YQ12). Briefly: Inhibition of HIV1 protease at 50 nM.

*1 amine or outer side, *2 acyl side, *3 side chain or, on linkers, in order; H or OH if unused. Where a SMILES comes first, the peptide text is derived from it. [ ]: non-standard residue; d: D form. X1 = O=C([C@@H](O)[C@H](Cc1ccccc1)N[*:1])[*:2]; Thz(5,5-Me2) = CC1(C)SCN[C@@H]1C(=O)O

Chain of Protease (Human immunodeficiency virus 1) (Q9YQ12 as listed by the source): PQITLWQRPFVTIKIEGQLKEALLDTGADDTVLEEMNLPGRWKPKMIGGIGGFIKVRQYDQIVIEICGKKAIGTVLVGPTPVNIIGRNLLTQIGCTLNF
Chain of Gag-Pro polyprotein (P10274 450-574 L489I): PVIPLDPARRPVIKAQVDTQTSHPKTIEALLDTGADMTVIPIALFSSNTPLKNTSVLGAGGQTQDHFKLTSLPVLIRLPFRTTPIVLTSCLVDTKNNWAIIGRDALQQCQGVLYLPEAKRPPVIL

What is called IC50 is the midpoint of a concentration-inhibition curve. The inhibition is the change of the read-out against control, counted positive when it falls. Low readings indicate little suppression, high ones strong suppression. `CC[C@H](C)[C@H](NC(C)=O)C(=O)N[C@H](C(=O)N[C@H](Cc1ccccc1)[C@H](O)C(=O)N1CSC(C)(C)[C@@H]1C(=O)N[C@H](C(=O)N[C@@H](CCSC)C(N)=O)[C@@H](C)CC)[C@@H](C)CC` had an IC50 in assay [1] of 180 nM. For the same molecule, the inhibition in assay [2] turned out to be 73%. In turn, `CSCC[C@H](NC(=O)[C@@H](NC(=O)[C@H]1N(C(=O)[C@@H](O)[C@H](Cc2ccccc2)NC(=O)[C@@H](NC(=O)[C@H](CCC(N)=O)NC(C)=O)C(C)C)CSC1(C)C)C(C)C)C(N)=O` (Ac-QV[X1][Thz(5,5-Me2)]VM-NH2) returned an IC50 in assay [1] of 353 nM. The inhibition in assay [2] turned out to be 96%. The like results for `CC[C@H](C)[C@H](NC(=O)[C@@H](NC(C)=O)C(C)(C)C)C(=O)N[C@@H](Cc1ccccc1)[C@H](O)C(=O)N1CSC(C)(C)[C@@H]1C(=O)N[C@H](C(=O)N[C@@H](CCSC)C(N)=O)[C@@H](C)CC` were, in that order, 201 nM and 98%. The like results for `CC[C@H](C)[C@H](NC(C)=O)C(=O)N[C@@H](Cc1ccccc1)[C@H](O)C(=O)N1CSC(C)(C)[C@@H]1C(=O)N[C@H](C(=O)N[C@@H](CCSC)C(N)=O)[C@@H](C)CC` were, in that order, more than 1000 nM and 89%.

Take `CC[C@H](C)[C@H](NC(C)=O)C(=O)N[C@H](C(=O)N[C@@H](Cc1ccccc1)[C@H](O)C(=O)N1CSC(C)(C)[C@@H]1C(=O)N[C@H](C(=O)N[C@@H](C)C(N)=O)[C@@H](C)CC)[C@@H](C)CC`: half-maximal inhibition in assay [1] (IC50) was put at 160 nM. In assay [2], the inhibition came out at 82%. The like results for `CC(=O)N[C@H](C(=O)N[C@H](C(=O)N[C@@H](Cc1ccccc1)[C@H](O)C(=O)N1CSC(C)(C)C1C(=O)NCC1CC1)C(C)(C)C)c1ccccc1` (some centres undefined) were, in that order, 146 nM and 99%.

With `CSCC[C@H](NC(=O)[C@@H](NC(=O)[C@@H]1CCCN1C(=O)[C@@H](O)[C@H](Cc1ccccc1)NC(=O)[C@@H](NC(=O)[C@H](CCC(N)=O)NC(=O)[C@@H]1CCCN1)C(C)C)C(C)C)C(=O)N[C@@H](Cc1cnc[nH]1)C(=O)O` (H-PQV[X1]PVMH-OH), it took 159 nM to reach half-maximal inhibition in assay [1] (IC50). In addition, in assay [2], the inhibition was less than 30%. For `CSCC[C@H](NC(=O)[C@@H](NC(=O)[C@H]1N(C(=O)[C@@H](O)[C@H](Cc2ccccc2)NC(=O)[C@@H](NC(=O)[C@H](CCC(N)=O)NC(=O)[C@@H]2CCCN2)C(C)C)CSC1(C)C)C(C)C)C(=O)N[C@@H](Cc1cnc[nH]1)C(=O)O` (H-PQV[X1][Thz(5,5-Me2)]VMH-OH), 152 nM corresponded to half-maximal inhibition in assay [1] (IC50). Turning to `CC[C@H](C)[C@H](NC(C)=O)C(=O)N[C@H](C(=O)N[C@@H](Cc1ccccc1)[C@H](O)C(=O)N1CSC(C)(C)[C@@H]1C(=O)N[C@H](C(=O)N[C@@H](CCSC)C(N)=O)[C@@H](C)CC)[C@@H](C)CC`, the IC50 in assay [1] is 88 nM. Besides, the inhibition in assay [2] was found to be 98%. The like results for `CC(=O)N[C@H](C(=O)N[C@H](C(=O)N[C@@H](Cc1ccccc1)[C@H](O)C(=O)N1CSC(C)(C)C1C(=O)NCC(C)(C)C)C(C)(C)C)c1ccccc1` (some centres undefined) were, in that order, 113 nM and 99%. `CC[C@H](C)[C@H](NC(=O)[C@@H]1N(C(=O)[C@@H](O)[C@H](Cc2ccccc2)NC(=O)[C@@H](NC(=O)[C@@H](NC(C)=O)c2ccccc2)C(C)(C)C)CSC1(C)C)C(=O)N[C@@H](CCSC)C(N)=O` had an IC50 in assay [1] of 101 nM. The same molecule returned an inhibition in assay [2] of 99%. The like results for `C=C(C)CNC(=O)C1N(C(=O)[C@@H](O)[C@H](Cc2ccccc2)NC(=O)[C@@H](NC(=O)[C@@H](NC(C)=O)c2ccccc2)C(C)(C)C)CSC1(C)C` (some centres undefined) were, in that order, 140 nM and more than 99%. Turning to `CC[C@H](C)[C@H](NC(C)=O)C(=O)N[C@H](C(=O)N[C@@H](Cc1ccccc1)[C@H](O)C(=O)N1CSC(C)(C)[C@@H]1C(=O)N[C@H](C(=O)N[C@@H](CCSC)C(N)=O)[C@@H](C)CC)c1ccccc1`, in assay [1], half-maximal inhibition (IC50) required 320 nM. In assay [2], this molecule showed an inhibition of 88%. The like results for `CC[C@H](C)[C@H](NC(C)=O)C(=O)N[C@H](C(=O)N[C@@H](Cc1ccccc1)[C@H](O)C(=O)N1CSC(C)(C)[C@@H]1C(=O)N[C@H](C(=O)N[C@@H](CCC(N)=O)C(N)=O)[C@@H](C)CC)[C@@H](C)CC` were, in that order, 159 nM and 93%. `CC[C@H](C)[C@H](NC(C)=O)C(=O)N[C@H](C(=O)N[C@@H](Cc1ccccc1)[C@H](O)C(=O)N1CSC(C)(C)[C@@H]1C(=O)N[C@H](C(=O)N[C@@H](CCSC)C(N)=O)[C@@H](C)CC)C(C)(C)C` returned an IC50 in assay [1] of 145 nM. Further, in assay [2], the inhibition came to 97%. The like results for `CC[C@H](C)[C@H](NC(=O)[C@@H](NC(C)=O)c1ccccc1)C(=O)N[C@@H](Cc1ccccc1)[C@H](O)C(=O)N1CSC(C)(C)[C@@H]1C(=O)N[C@H](C(=O)N[C@@H](CCSC)C(N)=O)[C@@H](C)CC` were, in that order, 102 nM and 98%. `C=CCNC(=O)C1N(C(=O)[C@@H](O)[C@H](Cc2ccccc2)NC(=O)[C@@H](NC(=O)[C@@H](NC(C)=O)c2ccccc2)C(C)(C)C)CSC1(C)C` (some centres undefined) had an IC50 in assay [1] of 131 nM. Besides, the inhibition in assay [2] was more than 99%. The like results for `CC[C@H](C)[C@H](NC(C)=O)C(=O)N[C@H](C(=O)N[C@@H](Cc1ccccc1)[C@H](O)C(=O)N1CSC(C)(C)[C@@H]1C(=O)N[C@H](C(=O)N[C@@H](Cc1ccccc1)C(N)=O)[C@@H](C)CC)[C@@H](C)CC` were, in that order, 95 nM and 98%. Regarding `CC(=O)N[C@H](C(=O)N[C@H](C(=O)N[C@@H](Cc1ccccc1)[C@H](O)C(=O)N1CSC(C)(C)C1C(=O)NCC(C)C)C(C)(C)C)c1ccccc1` (some centres undefined), the IC50 in assay [1] was determined as 107 nM. The molecule further displayed an inhibition in assay [2] of more than 99%. The like results for `CC(=O)N[C@H](C(=O)N[C@H](C(=O)N[C@@H](Cc1ccccc1)[C@H](O)C(=O)N1CSC(C)(C)C1C(=O)NCc1ccccc1C)C(C)(C)C)c1ccccc1` (some centres undefined) were, in that order, 103 nM and 99%. The like results for `CC[C@H](C)[C@H](NC(C)=O)C(=O)N[C@H](C(=O)N[C@@H](Cc1ccccc1)[C@H](O)C(=O)N1CSC(C)(C)[C@@H]1C(=O)N[C@H](C(=O)N[C@@H](CCSC)C(N)=O)C(C)(C)C)[C@@H](C)CC` were, in that order, 180 nM and 79%. The like results for `CC[C@H](C)[C@H](NC(=O)[C@@H]1N(C(=O)[C@@H](O)[C@H](Cc2ccccc2)NC(=O)[C@@H](NC(=O)[C@@H](NC(C)=O)c2ccccc2)C(C)(C)C)CSC1(C)C)C(=O)N[C@@H](CCC(N)=O)C(N)=O` were, in that order, 84 nM and 98%.

In the case of `CCCNC(=O)C1N(C(=O)[C@@H](O)[C@H](Cc2ccccc2)NC(=O)[C@@H](NC(=O)[C@@H](NC(C)=O)c2ccccc2)C(C)(C)C)CSC1(C)C` (some centres undefined), the half-inhibitory concentration (IC50) in assay [1] is 193 nM. Also, in assay [2], the inhibition was 98%. `CSCC[C@H](NC(=O)[C@@H](NC(=O)[C@H]1N(C(=O)[C@@H](O)[C@H](Cc2ccccc2)NC(=O)[C@@H](NC(=O)[C@H](CCC(N)=O)NC(=O)[C@@H]2CCCN2)C(C)C)CSC1(C)C)C(C)C)C(=O)N[C@@H](Cc1c[nH]cn1)C(=O)O` (H-PQV[X1][Thz(5,5-Me2)]VMH-OH) returned an inhibition in assay [2] of 58%. Regarding `CC[C@H](C)[C@H](NC(=O)[C@@H]1N(C(=O)[C@@H](O)[C@H](Cc2ccccc2)NC(=O)[C@@H](NC(=O)[C@@H](NC(C)=O)c2ccccc2)C(C)(C)C)CSC1(C)C)C(N)=O`, it took 144 nM to reach half-maximal inhibition in assay [1] (IC50). In assay [2], this molecule displayed an inhibition of 93%. The like results for `CC(=O)N[C@H](C(=O)N[C@H](C(=O)N[C@@H](Cc1ccccc1)[C@H](O)C(=O)N1CSC(C)(C)C1C(=O)NCc1cccc(I)c1)C(C)(C)C)c1ccccc1` (some centres undefined) were, in that order, 473 nM and 97%. The like results for `CC[C@H](C)[C@H](NC(=O)[C@@H]1N(C(=O)[C@@H](O)[C@H](Cc2ccccc2)NC(=O)[C@@H](NC(=O)[C@@H](NC(C)=O)[C@@H](C)CC)[C@@H](C)CC)CSC1(C)C)C(N)=O` were, in that order, 249 nM and 57%. The like results for `CC[C@H](C)[C@H](NC(C)=O)C(=O)N[C@H](C(=O)N[C@@H](Cc1ccccc1)[C@H](O)C(=O)N1CSC(C)(C)[C@@H]1C(=O)N[C@H](C(=O)N[C@@H](CCSC)C(N)=O)c1ccccc1)[C@@H](C)CC` were, in that order, 123 nM and 86%.
